Values after ≈ are worked out from the molar mass of the structure shown.

In general, IC90 refers to the concentration at which the effect reaches the 90% level.

In the experiment the test system is M. tuberculosis H37Rv growth inhibition. The experiment in a line: Mycobacterium tuberculosis H37Rv growth inhibition, putative kinase inhibitor library, confirmatory dose response (AID 2842).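 Further: bacteria incubated one week before Alamar blue readout.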

In the case of `Clc1ccc(Nc2ccc(NCc3ccccc3)nn2)cc1`, the concentration for an effect of 90% (IC90) is 5.5 µg/mL (≈ 17.7 µM).
Take `COC(=O)CSCC(=O)Nc1nnc(-c2cccc(C)c2)s1`: the IC90 was 23.9 µg/mL (≈ 70.8 µM).
As to `Cc1ccc(Nc2nc(N3CCN(Cc4ccccc4)CC3)nc3nccnc23)cc1`, the concentration for an effect of 90% (IC90) was 7.94 µg/mL (≈ 19.3 µM).
Consider `C=CCNC(=S)NNc1ccc([N+](=O)[O-])cc1`, for which the IC90 was 10 µg/mL (≈ 39.6 µM).
As for `CCCCOc1ccc(C(=O)Nc2nnc(-c3ccco3)o2)cc1`, the figure is 0.8 µg/mL (≈ 2.44 µM); as for `Cc1ccc(C)c(C(=O)Nc2nnc(-c3ccc(C)c(C)c3)o2)c1`, 2.66 µg/mL (≈ 8.28 µM); as for `CCOC(=O)c1c(NC(=O)/C=C/C(N)=O)sc2c1CCCC2`, 6.76 µg/mL (≈ 21 µM).
Regarding `COc1cc(C=NNC(=O)Nc2cccc(Cl)c2)ccc1O`, the IC90 is 8.5 µg/mL (≈ 26.6 µM).
In the case of `COc1cccc(NC(=O)C2C(=O)CN(c3ccccc3)C2=O)c1` (stereo not drawn), the IC90 is 4.41 µg/mL (≈ 13.6 µM).
For `O=C(Nc1nnc(-c2ccc3c(c2)OCCO3)o1)c1nc2ccccc2s1`, the IC90 is 25.8 µg/mL (≈ 67.9 µM).
As to `Fc1cc(F)c2nc(N3CCCC3)sc2c1`, the IC90 is 18.2 µg/mL (≈ 76 µM).
Consider `O=C(NNc1nc2ccc(Cl)cc2s1)c1nc2ccccc2s1`, for which the IC90 is 3.15 µg/mL (≈ 8.73 µM).
With `O=C(Nc1ccc(I)cc1)c1ccc([N+](=O)[O-])s1`, the IC90 is under 0.2 µg/mL.
Under `CCOc1cc(-c2nnc(NC(=O)C(C)C)o2)cc(OCC)c1OCC` stands 9.11 µg/mL (≈ 25.1 µM).
For the molecule `COc1cc(OC)cc(C(=O)N(CCCn2ccnc2)c2nc3c(C)cc(C)cc3s2)c1`, the IC90 was 10.1 µg/mL (≈ 22.3 µM).
As for `COc1ccc(C)c2sc(N(CCCn3ccnc3)C(=O)c3cccs3)nc12`, the figure is 2.4 µg/mL (≈ 5.82 µM); as for `Cc1nc2c(ccc3nc(NC(=O)c4ccc(C(C)(C)C)cc4)sc32)s1`, 3.24 µg/mL (≈ 8.49 µM).
With `O=C(Nc1ncc(Cc2ccccc2Cl)s1)c1cccs1`, the IC90 was 18.3 µg/mL (≈ 54.5 µM).
In the case of `O=C(Nc1nnc(-c2ccc(Cl)cc2)o1)c1ccc(Br)cc1`, the IC90 was 3.26 µg/mL (≈ 8.61 µM).
Turning to `O=C(Nc1nnc(-c2cccs2)o1)c1cccc(C(F)(F)F)c1`, the IC90 is 3.48 µg/mL (≈ 10.3 µM).
Turning to `CC(C)CCNC(=O)c1c(O)nc2sccn2c1=O`, the IC90 is 13.1 µg/mL (≈ 46.6 µM).
Turning to `O=C(Nc1nnc(-c2ccccc2)o1)c1ccc2c(c1)CCCC2`, the IC90 was 15.5 µg/mL (≈ 48.7 µM).
On to `Cc1ccc(-n2nnc3c(SCC(=O)N4CCOCC4)ncnc32)cc1`, for which the IC90 was 12.3 µg/mL (≈ 33.3 µM).
As for `Cc1c(C)n2c3c(=O)[nH]c(=O)n(C)c3nc2n1-c1ccccc1O`, the figure is 0.75 µg/mL (≈ 2.31 µM); as for `OCc1cn(-c2ccccc2)nc1-c1ccc(F)cc1`, 6.38 µg/mL (≈ 23.8 µM).
As for `Cc1ccc(-c2nnc(NC(=O)CCOc3ccccc3)o2)c(C)c1`, the IC90 is 1.8 µg/mL (≈ 5.34 µM).
`Cc1ccc2c(c1)c1nnc(-c3ccc4c(c3)OCO4)c-1cn2Cc1cccc(F)c1`: the IC90 is 3.39 µg/mL (≈ 8.24 µM).
With `Fc1cccc2sc(Nc3nc(-c4cccs4)cs3)nc12`, the IC90 was 25.4 µg/mL (≈ 76 µM).
For `O=C(c1ccco1)N(CCCn1ccnc1)c1nc2c(F)cccc2s1`, the 90% effect concentration (IC90) is 3.11 µg/mL (≈ 8.4 µM).
For `CCCCOc1ccc(C(=O)Nc2nnc(-c3cc(C)ccc3C)o2)cc1`, the IC90 was 25.4 µg/mL (≈ 69.5 µM).
Under `Cc1cccc(N2CCN(C(=O)CCCCCn3c(=O)[nH]c4ccsc4c3=O)CC2)c1C` stands 20.9 µg/mL (≈ 46 µM); under `O=C(Nc1nnc(-c2cccs2)o1)c1cc(-c2ccccc2)nc2ccccc12`, 0.53 µg/mL (≈ 1.33 µM).
Consider `Cc1cc(Nc2ccc(C)c(C)c2)n2ncc(-c3ccccc3)c2n1`, for which the IC90 was 3.44 µg/mL (≈ 10.5 µM).
Under `O=C(CN1CCOCC1)Nc1ncc(Cc2cc(Cl)cc(Cl)c2)s1` stands 14.9 µg/mL (≈ 38.5 µM).
With `Cc1cn2c3c(=O)[nH]c(=O)n(C)c3nc2n1CCCNc1ccccc1`, the IC90 is 3.69 µg/mL (≈ 10.5 µM).
Consider `O=C(Nc1nnc(-c2ccc(Cl)s2)o1)c1ccc([N+](=O)[O-])o1`, for which the IC90 was 0.85 µg/mL (≈ 2.49 µM).
With `O=C(c1ccc(NC2=C(Cl)C(=O)N(Cc3ccccc3)C2=O)cc1)N1CCCCC1`, the IC90 was 6.24 µg/mL (≈ 14.7 µM).
For the molecule `COc1ccc(-c2nnc3c4cc(OC)c(OC)cc4n(Cc4ccc(C)cc4)cc2-3)cc1`, the IC90 was 95.4 µg/mL (≈ 217 µM).
`COc1ccc(Cl)cc1NC(=O)NC1CC(=O)N(c2ccc(C)c(C)c2)C1` (stereo not drawn): the IC90 was 28.5 µg/mL (≈ 73.5 µM).
Turning to `Cc1c(C#N)c(N)nc(SCC(=O)c2cc3ccccc3oc2=O)c1C#N`, the IC90 is 0.42 µg/mL (≈ 1.12 µM).
For `O=C(CCOc1ccccc1)Nc1nnc(-c2ccc(Cl)s2)o1`, the IC90 was 13.9 µg/mL (≈ 39.7 µM).
Under `COc1cccc(-c2nnc(NC(=O)c3ccccc3Br)o2)c1` stands 2.17 µg/mL (≈ 5.8 µM); under `COc1ccc(CNc2nccn(-c3cc(C)c(Cl)cc3OC)c2=O)cc1`, 18.1 µg/mL (≈ 46.8 µM); under `O=C(Nc1nnc(-c2ccccc2Cl)o1)C1=COCCO1`, 4.3 µg/mL (≈ 14 µM).
With `CCS(=O)(=O)c1cccc(C(=O)Nc2nc3ccc(C(C)C)cc3s2)c1`, the IC90 was 11.3 µg/mL (≈ 29.1 µM).
As to `COc1ccc(-c2cc3ccccc3n2CC(O)CNCCc2ccccc2)cc1` (stereo not drawn), the IC90 is 4.11 µg/mL (≈ 10.3 µM).
On to `Cc1cccc2sc(N(CCCn3ccnc3)C(=O)c3ccco3)nc12`, for which the IC90 is 0.83 µg/mL (≈ 2.26 µM).
Under `Cn1c(=O)c2c(nc(SCC(=O)c3ccccc3)n2Cc2ccc(F)cc2)n(C)c1=O` stands 31.8 µg/mL (≈ 72.4 µM); under `CCc1ccc(-c2nnc3c4cc5c(cc4n(Cc4ccc(OC)cc4)cc2-3)OCCO5)cc1`, 5.37 µg/mL (≈ 11.9 µM).
Consider `COc1ccc2nc(N3CCCC3)sc2c1`, for which the IC90 is 8.36 µg/mL (≈ 35.7 µM).
In the case of `Cc1ccc(CC(=O)Nc2nnc(-c3ccco3)o2)c(C)c1`, the IC90 was 17.9 µg/mL (≈ 60 µM).
Regarding `O=C(OCc1ccco1)c1cc2ccccc2oc1=O`, the IC90 was 20.4 µg/mL (≈ 75.3 µM).
On to `OCc1nc2ccccc2n1CC(O)COc1ccc(Br)cc1` (stereo not drawn), for which the IC90 is 10.2 µg/mL (≈ 27 µM).
`COC(=O)c1c(NC(=O)c2ccc(C)c(C)c2)sc2c1CCN(C(C)=O)C2`: the IC90 was 48 µg/mL (≈ 124 µM).
Regarding `O=C(Nc1nc2c(s1)CCCC2)c1ccc(Cc2ccccc2)cc1`, the IC90 is 7.01 µg/mL (≈ 20.1 µM).
`O=C(Cc1cccc2ccccc12)Nc1nnc(-c2cc(Cl)ccc2Cl)o1`: the IC90 was 94.5 µg/mL (≈ 237 µM).
As to `CC1(C)Cc2c(sc(NC(=O)c3ccc(Oc4ccccc4)cc3)c2C(N)=O)C(C)(C)N1`, the IC90 is 6.22 µg/mL (≈ 13.8 µM).
Regarding `COc1ccc(-c2ccc(C3C(C#N)=C(N)Oc4n[nH]c(C)c43)o2)cc1` (stereo not drawn), the IC90 was 4.92 µg/mL (≈ 14.1 µM).
Turning to `COc1ccc(-c2nnc(NC(=O)C(C)C)o2)cc1`, the IC90 is 19.9 µg/mL (≈ 76.3 µM).
`O=C(c1ccco1)N(CCCn1ccnc1)c1nc2c(F)cc(F)cc2s1`: the IC90 is 0.75 µg/mL (≈ 1.93 µM).
On to `CC(=O)c1ccc(C(=O)Nc2nnc(-c3ccc(Cl)cc3)o2)cc1`, for which the IC90 was 1.8 µg/mL (≈ 5.27 µM).
For `O=C(Nc1nnc(-c2ccc(Cl)s2)o1)C1CCCCC1`, the 90% effect concentration (IC90) was 6.45 µg/mL (≈ 20.7 µM).
Turning to `CSc1ccc2nc(Nc3cccc(C)c3C)sc2c1`, the IC90 is 18.8 µg/mL (≈ 62.7 µM).
For the molecule `Clc1cccc(N2CCN(c3nc(Nc4ccccc4)c4nccnc4n3)CC2)c1`, the IC90 is 4.58 µg/mL (≈ 11 µM).
Consider `O=C(CS(=O)(=O)c1ccccc1)Nc1nc(-c2ccc3c(c2)CCCC3)cs1`, for which the 90% effect concentration (IC90) was 1.02 µg/mL (≈ 2.47 µM).
As for `O=C(NCc1nnc(SCC(=O)N2CCC(Cc3ccccc3)CC2)o1)c1ccco1`, the figure is 25.1 µg/mL (≈ 57 µM).
Under `CCOc1ccc2c(c1)c1nnc(-c3ccc(OC)cc3)c-1cn2Cc1ccccc1F` stands 4.73 µg/mL (≈ 11.1 µM); under `CCS(=O)(=O)c1cccc(C(=O)Nc2nnc(-c3ccc(Br)cc3)o2)c1`, 7.76 µg/mL (≈ 17.8 µM).
As for `COc1ccccc1C(=O)Nc1nnc(-c2ccccc2Cl)o1`, the figure is 3.23 µg/mL (≈ 9.8 µM); as for `Cc1ccc(C(=O)Nc2nnc(-c3cc(C)ccc3C)o2)cc1`, 41.5 µg/mL (≈ 135 µM).
For the molecule `O=C(Nc1nnc(-c2ccc3c(c2)OCCO3)o1)c1ccccc1Oc1ccccc1`, the IC90 was 3.77 µg/mL (≈ 9.08 µM).
In the case of `CCc1ccc(-c2ccc(SCC(N)=O)nn2)cc1`, the 90% effect concentration (IC90) is 4.66 µg/mL (≈ 17 µM).
On to `O=C(COc1ccccc1)Nc1nnc(-c2ccc3c(c2)CCCC3)o1`, for which the IC90 was 6.48 µg/mL (≈ 18.5 µM).

Source of the values: PubChem BioAssay AID2842 (Southern Research Institute, 2010).
